Measurements as given in the supplement of paper PMC10883282.

Legend:
Assay in all cases: relative viability vs DMSO control (72 h) (fraction); higher = more viable cells
A204 = tested on: A204
In short: (§1)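 A 5 µM positive control and 0.1% DMSO vehicle ran alongside sarcoma cell lines seeded in 384-well plates to reach 80–90% confluence. Serially diluted compound, 2.5 µl from source plates of 10 mM to 0.0002 mM, was added after 24 h, and the plates were held 72 h at 37 °C, 5% CO2. Relative viability was worked out from ATPLite readings as percent growth averaged over up to triplicate wells. The values were rescaled so that 1 is full and 0 is none.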

G401 = tested on: G401
In short: as §1

HS729 = tested on: HS729
In short: as §1

KHOS-NP = tested on: KHOS-NP
In short: as §1

MES-SA = tested on: MES-SA
In short: as §1

RD = tested on: RD
In short: as §1

SK-ES-1 = tested on: SK-ES-1
In short: as §1

SK-LMS-1 = tested on: SK-LMS-1
In short: as §1

SW684 = tested on: SW684
In short: as §1

SW872 = tested on: SW872
In short: as §1

SYO-1 = tested on: SYO-1
In short: as §1

VA-ES-BJ = tested on: VA-ES-BJ
In short: as §1

Cn1cnc2c(F)c(Nc3ccc(Br)cc3Cl)c(C(=O)NOCCO)cc21 [Selumetinib]
Details | relative viability
A204, 0.00017 µM | 1.03
A204, 0.00051 µM | 1.02
A204, 0.00152 µM | 1.01
A204, 0.00457 µM | 1.055
A204, 0.01372 µM | 0.988
A204, 0.04115 µM | 0.977
A204, 0.1235 µM | 0.947
A204, 0.3704 µM | 0.973
A204, 1.111 µM | 0.939
A204, 3.333 µM | 0.9367
A204, 10 µM | 0.811
G401, 0.00017 µM | 0.994
G401, 0.00051 µM | 0.962
G401, 0.00152 µM | 0.959
G401, 0.00457 µM | 0.935
G401, 0.01372 µM | 0.949
G401, 0.04115 µM | 0.926
G401, 0.1235 µM | 0.882
G401, 0.3704 µM | 0.838
G401, 1.111 µM | 0.78
G401, 3.333 µM | 0.719
G401, 10 µM | 0.627
HS729, 0.00017 µM | 0.898
HS729, 0.00051 µM | 0.929
HS729, 0.00152 µM | 0.869
HS729, 0.00457 µM | 0.894
HS729, 0.01372 µM | 0.896
HS729, 0.04115 µM | 0.902
HS729, 0.1235 µM | 0.849
HS729, 0.3704 µM | 0.843
HS729, 1.111 µM | 0.846
HS729, 3.333 µM | 0.82
HS729, 10 µM | 0.794
KHOS-NP, 0.00017 µM | 1.06
KHOS-NP, 0.00051 µM | 1.03
KHOS-NP, 0.00152 µM | 1.04
KHOS-NP, 0.00457 µM | 1.04
KHOS-NP, 0.01372 µM | 1.01
KHOS-NP, 0.04115 µM | 0.965
KHOS-NP, 0.1235 µM | 0.823
KHOS-NP, 0.3704 µM | 0.727
KHOS-NP, 1.111 µM | 0.526
KHOS-NP, 3.333 µM | 0.351
KHOS-NP, 10 µM | 0.277
MES-SA, 0.00017 µM | 0.871
MES-SA, 0.00051 µM | 0.89
MES-SA, 0.00152 µM | 0.855
MES-SA, 0.00457 µM | 0.862
MES-SA, 0.01372 µM | 0.847
MES-SA, 0.04115 µM | 0.844
MES-SA, 0.1235 µM | 0.754
MES-SA, 0.3704 µM | 0.779
MES-SA, 1.111 µM | 0.76
MES-SA, 3.333 µM | 0.741
MES-SA, 10 µM | 0.694
RD, 0.00017 µM | 1.06
RD, 0.00051 µM | 1.04
RD, 0.00152 µM | 1.04
RD, 0.00457 µM | 0.977
RD, 0.01372 µM | 0.931
RD, 0.04115 µM | 0.875
RD, 0.1235 µM | 0.749
RD, 0.3704 µM | 0.703
RD, 1.111 µM | 0.632
RD, 3.333 µM | 0.593
RD, 10 µM | 0.543
SK-ES-1, 0.00017 µM | 0.944
SK-ES-1, 0.00051 µM | 0.961
SK-ES-1, 0.00152 µM | 0.951
SK-ES-1, 0.00457 µM | 0.956
SK-ES-1, 0.01372 µM | 0.951
SK-ES-1, 0.04115 µM | 0.929
SK-ES-1, 0.1235 µM | 0.932
SK-ES-1, 0.3704 µM | 0.925
SK-ES-1, 1.111 µM | 0.925
SK-ES-1, 3.333 µM | 0.925
SK-ES-1, 10 µM | 0.87
SK-LMS-1, 0.00017 µM | 0.942
SK-LMS-1, 0.00051 µM | 0.955
SK-LMS-1, 0.00152 µM | 0.953
SK-LMS-1, 0.00457 µM | 0.945
SK-LMS-1, 0.01372 µM | 0.875
SK-LMS-1, 0.04115 µM | 0.708
SK-LMS-1, 0.1235 µM | 0.6
SK-LMS-1, 0.3704 µM | 0.601
SK-LMS-1, 1.111 µM | 0.5484
SK-LMS-1, 3.333 µM | 0.491
SK-LMS-1, 10 µM | 0.37
SW684, 0.00017 µM | 1.04
SW684, 0.00051 µM | 1.09
SW684, 0.00152 µM | 1.06
SW684, 0.00457 µM | 1.03
SW684, 0.01372 µM | 1.03
SW684, 0.04115 µM | 0.973
SW684, 0.1235 µM | 0.969
SW684, 0.3704 µM | 0.98
SW684, 1.111 µM | 0.941
SW684, 3.333 µM | 0.84
SW684, 10 µM | 0.692
SW872, 0.00017 µM | 0.957
SW872, 0.00051 µM | 0.985
SW872, 0.00152 µM | 0.951
SW872, 0.00457 µM | 0.938
SW872, 0.01372 µM | 0.894
SW872, 0.04115 µM | 0.758
SW872, 0.1235 µM | 0.654
SW872, 0.3704 µM | 0.58
SW872, 1.111 µM | 0.58
SW872, 3.333 µM | 0.562
SW872, 10 µM | 0.545
SYO-1, 0.00017 µM | 0.937
SYO-1, 0.00051 µM | 0.931
SYO-1, 0.00152 µM | 0.9523
SYO-1, 0.00457 µM | 0.9263
SYO-1, 0.01372 µM | 0.8956
SYO-1, 0.04115 µM | 0.869
SYO-1, 0.1235 µM | 0.829
SYO-1, 0.3704 µM | 0.805
SYO-1, 1.111 µM | 0.778
SYO-1, 3.333 µM | 0.733
SYO-1, 10 µM | 0.695
VA-ES-BJ, 0.00017 µM | 0.9961
VA-ES-BJ, 0.00051 µM | 0.992
VA-ES-BJ, 0.00152 µM | 0.985
VA-ES-BJ, 0.00457 µM | 0.964
VA-ES-BJ, 0.01372 µM | 0.947
VA-ES-BJ, 0.04115 µM | 0.877
VA-ES-BJ, 0.1235 µM | 0.8465
VA-ES-BJ, 0.3704 µM | 0.836
VA-ES-BJ, 1.111 µM | 0.808
VA-ES-BJ, 3.333 µM | 0.78
VA-ES-BJ, 10 µM | 0.742
